From the supplement of paper PMC10307832

How the values were obtained:
Test in all cases: relative viability (nuclei count vs DMSO), 5 days (fraction); higher = more cells survive
[1] = compound: CN1C=C(C2=CC=CC=C21)/C=C\3/C4=C(C=CC=N4)NC3=O + Cc1cc(Nc2cc(N3CCN(C)CC3)nc(Sc3ccc(NC(=O)C4CC4)cc3)n2)n[nH]1 [Tozasertib] (partner 0.1 µM)
In short: (§1)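 Lung cancer cell lines in 1536-well plates got either a single drug or a fixed anchor-drug dose together with five library-drug doses (not always all listed) in √10 steps, by pin tool, on the day after seeding. Nuclei were counted after 5 days, and relative viability is the treated-to-vehicle ratio of nuclei counts. Values are medians of duplicate plates.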

Trametinib + Decitabine = compound: CC(=O)Nc1cccc(-n2c(=O)n(C3CC3)c(=O)c3c(Nc4ccc(I)cc4F)n(C)c(=O)c(C)c32)c1 [Trametinib] + Nc1ncn([C@H]2C[C@H](O)[C@@H](CO)O2)c(=O)n1 [Decitabine] (partner 2 µM)
In short: as §1

[2] = compound: CN1C=C(C2=CC=CC=C21)/C=C\3/C4=C(C=CC=N4)NC3=O + CC(=O)Nc1cccc(-n2c(=O)n(C3CC3)c(=O)c3c(Nc4ccc(I)cc4F)n(C)c(=O)c(C)c32)c1 [Trametinib] (partner 0.02 µM)
In short: as §1

[3] = compound: CN1C=C(C2=CC=CC=C21)/C=C\3/C4=C(C=CC=N4)NC3=O + CS(=O)(=O)CCNCc1ccc(-c2ccc3ncnc(Nc4ccc(OCc5cccc(F)c5)c(Cl)c4)c3c2)o1 [Lapatinib] (partner 2 µM)
In short: as §1

Cell Line	relative viability ([1]; first compound 0.02 µM)	relative viability ([1]; first compound 0.06325 µM)	relative viability ([1]; first compound 0.2 µM)	relative viability ([1]; first compound 0.6325 µM)	relative viability ([1]; first compound 2 µM)	relative viability (Trametinib + Decitabine; first compound 0.0025 µM)	relative viability (Trametinib + Decitabine; first compound 0.007906 µM)	relative viability (Trametinib + Decitabine; first compound 0.025 µM)	relative viability (Trametinib + Decitabine; first compound 0.07906 µM)	relative viability (Trametinib + Decitabine; first compound 0.25 µM)	relative viability ([2]; first compound 0.02 µM)	relative viability ([2]; first compound 0.06325 µM)	relative viability ([2]; first compound 0.2 µM)	relative viability ([2]; first compound 0.6325 µM)	relative viability ([2]; first compound 2 µM)	relative viability ([3]; first compound 0.02 µM)	relative viability ([3]; first compound 0.06325 µM)	relative viability ([3]; first compound 0.2 µM)	relative viability ([3]; first compound 0.6325 µM)	relative viability ([3]; first compound 2 µM)
NCI-H441	0.67	0.607	0.651	0.572	0.567	0.272	0.248	0.259	0.25	0.168	0.468	0.511	0.492	0.544	0.52					
NCI-H520	0.396	0.47	0.501	0.436	0.415	0.445	0.504	0.535	0.502	0.473	0.542	0.589	0.621	0.716	0.68	0.741	0.86	0.841	0.981	0.937
CAL-12T	0.343	0.255	0.247	0.324	0.206						0.32	0.308	0.315	0.325	0.298	0.652	0.625	0.574	0.717	0.839
HCC-827	0.378	0.405		0.53	0.395	0.365	0.289	0.315	0.274	0.236	0.509	0.528		0.571	0.566	0.21	0.185		0.159	0.179
LC-2-ad	0.43	0.435	0.482	0.453	0.492	0.803	0.683	0.782	0.689	0.7	0.98	0.865	0.967	0.953	0.87	0.834	0.935	0.89	1.05	1
NCI-H2170	0.549	0.721	0.737	0.79	0.72	0.491	0.451		0.435	0.425	0.915	0.949	0.917	0.954	0.875		0.253	0.233	0.264	0.284
SW 1573	0.161	0.209	0.19	0.156	0.193	0.393	0.37	0.317	0.308	0.181	0.531	0.576	0.571	0.687	0.712	1.17	0.905	0.921	1.07	1.18
SK-MES-1	0.945	0.749	0.917	0.874	0.886	0.381	0.304	0.341	0.247	0.273	0.509	0.603	0.538	0.596	0.54	0.451	0.427	0.447	0.454	0.428
NCI-H1648		0.435	0.435	0.387	0.372	0.508	0.44	0.554	0.517	0.371	0.691	0.543	0.42	0.532	0.482					
NCI-H1793	0.306	0.37	0.296	0.258	0.197	0.458	0.4	0.447	0.334	0.228	0.526	0.611	0.396	0.441	0.387	0.912	0.787	0.646	0.448	0.799
NCI-H1299																0.979	0.974	0.989	1.03	0.979
LCLC-97TM1	0.132	0.196	0.181	0.332	0.252	0.275	0.287	0.206	0.203	0.169		0.19	0.189	0.198	0.19	0.696			0.882	0.948
NCI-H1915	0.385	0.432	0.482	0.424	0.484	0.268	0.248	0.24	0.227	0.188	0.3	0.32	0.293	0.303	0.285	0.921	0.98	0.898	1.09	1.05
NCI-H661	0.344	0.349	0.365	0.4	0.36	0.522	0.537	0.484	0.412	0.431	0.615	0.65	0.56	0.533	0.589	0.601	0.574	0.46	0.427	0.54
NCI-H2405	0.742	0.717	0.67	0.721	0.731	0.777	0.66	0.586		0.544	0.686	0.561	0.564	0.657	0.617	1.03	1.02	0.749	1.06	1.03
NCI-H2347		0.421	0.556	0.512	0.681	0.521	0.514	0.395	0.358	0.397	0.246	0.271	0.296	0.319	0.274	0.953	1.02	0.876	0.793	0.881
NCI-H1651	0.799	0.673	0.664	0.698	0.728	0.559	0.689	0.48	0.422	0.333	0.818	0.833	0.861	0.837	0.868	1.02	1.09	0.761	0.836	1.09
H3255	0.739	0.624	0.847	0.638	0.866	0.552	0.572	0.487	0.518	0.378	0.726		0.57	0.775	0.668	0.267	0.269	0.205	0.232	0.209
